Reference: US10954405B2, “Water-based diacetylene ink, hydrochromic polydiacetylene paper prepared using the ink, and use thereof” (INDUSTRY-UNIVERSITY COOPERATION FOUNDATION HANYANG …, priority 2015, dated 2021)

Assay: Solubility of DA-1 in water dependent upon temperature (FIG. 6C)
Format: physicochemical
Settings: sample of DA-1 and water in a plastic bag on a paper printed with "A", temperature elevated; clearer at 25° C. and 30° C.
Description: FIGS. 6A-6C are a set of photographs illustrating the temperature-dependent reaction of the moisture test paper manufactured according to the moisture test paper manufacture example and solubility of DA-1 in water dependent upon temperature.
Referring to FIG. 6C when a sample including DA-1 and water was put into a plastic bag, the plastic bag was put on a paper on which “A” was printed, and temperature was elevated, the lower “A” began to be observed from about 20° C. and became clearer as temperature was elevated to 25° C. and 30° C.

CCCCCCCCCCCCC#CC#CCCCCCCCCC(=O)NCCCn1cc[n+](CC#N)c1 [DA-1]
temperature from which DA-1 dissolves in water (printed "A" under the sample began to be observed): about 20 °C
